# Test results taken from patent US9540649B2, “Method for opening tight junctions” (The Provost, Fellows and Scholars of the College of the …, priority 2007, dated 2017).
# Entries after “also recorded” stand apart in the source; their conditions may differ.
# How the values were obtained:
# IMPDH−/− mice = assay: Electroretinographic analysis of IMPDH−/− mice after claudin-5 suppression and GTP injection; format: in vivo
# Protocol: IMPDH−/− mice that had received a hydrodynamic injection of siRNA targeting claudin-5 were dark-adapted overnight and prepared for electroretinography under dim red light. Pupillary dilation was carried out by installation of 1% cyclopentalate and 2.5% phenylephrine. Animals were anesthetized by intraperitoneal injection of ketamine (2.08 mg per 15 g body weight) and xylazine (0.21 mg per 15 g body weight). Once the animal was anaesthetized, GTP was injected intraperitoneally. The ERG commenced ten minutes after administration of anesthetic. Standardised flashes of light were presented to the mouse in a Ganzfeld bowl to ensure uniform retinal illumination. The ERG responses were recorded simultaneously from both eyes by means of gold wire electrodes (Roland Consulting Gmbh) using Vidisic (Dr Mann Pharma, Germany) as a conducting agent and to maintain corneal hydration. The eye was maintained in a proposed position throughout the examination by means of a small plastic band placed behind the globe. Reference and ground electrodes were positioned subcutaneously, approximately 1 mm from the temporal canthus and anterior to the tail respectively. Body temperature was maintained at 37° C. using a heating device controlled by a rectal temperature probe. Responses were analysed using a RetiScan RetiPort electrophysiology unit (Roland Consulting Gmbh). The protocol was based on that approved by the International Clinical Standards Committee for human electroretinography.
# C57/Bl6 mice = assay: Behavioural output after TRH injection in claudin-5 suppressed mice; format: in vivo
# Protocol: The protocol of Example 1 was followed to produce transiently claudin-5 suppressed mice. 48 hours post-delivery of siRNA targeting claudin-5 or a non-targeting siRNA, a 200 μl of a solution containing 20 mg/kg Thyrotropin Releasing Hormone (TRH) was injected to the claudin-5 suppressed mice. TRH was injected in the tail vein and immediately, the behavioural output of mice was assessed by filming them in a clear Perspex box.
# claudin-12 = assay: Claudin-12 staining in brain microvasculature after claudin-12 siRNA; format: in vivo, C57/Bl-6 mice; details: 48 hours post-injection; vs non-targeting control siRNA
# claudin-1 = assay: Western blot analysis of claudin-1 expression after hydrodynamic tail vein delivery of claudin-1 siRNA; format: in vivo, C57/Bl-6 mice
# occludin [1] = assay: Western blot analysis of occludin expression after hydrodynamic tail vein delivery of occludin siRNA; format: in vivo, C57/Bl-6 mice
# occludin [2] = assay: Occludin immunohistochemistry in brain microvasculature after occludin siRNA; format: in vivo, C57/Bl-6 mice; details: 48 hour time-point
# BBB = BBB permeability (albumin, immunoglobulin, Hoechst) following suppression of occludin; format: in vivo, C57/Bl-6 mice; details: for albumin extravasation, immunohistochemistry in brain vibratome sections: 24 hours post-injection; for passage of mouse immunoglobulins (IgG) into the brain: following suppression of occludin
# From the text: The protocols used were identical to the protocols used in Example 1.
# [3] = 48 hours post injection, vs non-targeting siRNA
molecule,measurement,setting,value
Nc1nc2c(ncn2[C@@H]2O[C@H](COP(=O)(O)OP(=O)(O)OP(=O)(O)O)[C@@H](O)[C@H]2O)c(=O)[nH]1 [GTP],"ERG rod response b-wave, left eye","IMPDH−/− mice; 11 month old IMPDH−/− mouse, after suppression of claudin-5 and GTP i.p., 2.48 uV before",121 uV
same,"ERG rod response b-wave, right eye","IMPDH−/− mice; 11 month old IMPDH−/− mouse, after suppression of claudin-5 and GTP i.p., 50.8 uV before",193 uV
same,ERG rod tracings,"IMPDH−/− mice; IMPDH−/− mice, after suppression of claudin-5 and GTP injection",increase significantly
"NC(=O)[C@@H]1CCCN1C(=O)[C@H](Cc1cnc[nH]1)NC(=O)[C@@H]1CCC(=O)N1 [TRH, Thyrotropin Releasing Hormone]",duration of cessation of mobility relative to non-targeting control mice,"C57/Bl6 mice; 20 mg/kg TRH tail vein, 48 hours post delivery of siRNA targeting claudin-5",≤ 5 times
same,mobility / length of time mice remain immobile,"C57/Bl6 mice; 20 mg/kg TRH, 48 hours post delivery of siRNA targeting claudin-5",significant cessation of mobility; also recorded: distinct increase in the length of time
same,delivery of TRH (359.5 Da) across the BBB,C57/Bl6 mice; BBB opened with siRNA targeting claudin-5,significantly enhanced
"CLDN12 siRNA (3): siRNA, target GUAACACGGCCUUCAAUUC; strands GUAACACGGCCUUCAAUUCUU and GAAUUGAAGGCCGUGUUACUU (SEQ ID No. 28, 29) (listed as RNA, chemistry not given here)","claudin-12 expression at the microvessels of the brain, staining",claudin-12,decreased
"CLDN12 siRNA (4): siRNA, target GGUCUUUACCUUUGACUAU; strands AAUCUUUACCUUUGACUAUUU and AUAGUCAAAGGUAAAGAUUUU (SEQ ID No. 30, 31) (listed as RNA, chemistry not given here)","claudin-12 expression at the microvessels of the brain, staining",claudin-12,decreased
"claudin-1 siRNA (1): siRNA, target GCAAAGCACCGGGCAGAUA; sense AUAGACGGGCCACGAAACGUU, anti-sense CGUUUCGUGGCCCGUCUAUUU (SEQ ID NO: 9, 10) (listed as RNA, chemistry not given here)","claudin-1 expression, Western blot",claudin-1; 24 hours post-injection,not evident
same,"claudin-1 expression, Western blot",claudin-1; 48 hours post-injection,significantly decrease claudin-1 expression
"claudin-1 siRNA (2): siRNA, target GAACAGUACUUUGCAGGCA; sense ACGGACGUUUCAUGACAAGUU, anti-sense CUUGUCAUGAAACGUCCGUUU (SEQ ID NO: 11, 12) (listed as RNA, chemistry not given here)","claudin-1 expression, Western blot",claudin-1; 24 hours post-injection,decreased
"claudin-1 siRNA (4): siRNA, target UUUCAGGUCUGGCGACAUU; sense UUACAGCGGUCUGGACUUUUU, anti-sense AAAGUCCAGACCGCUGUAAUU (SEQ ID NO: 13, 14) (listed as RNA, chemistry not given here)","claudin-1 expression, Western blot",claudin-1; 24 hours post-injection,decreased
same,"claudin-1 expression, Western blot",claudin-1; 48 hours post-injection,suppression was only evident
"occludin siRNA (1): siRNA, target GUUAUAAGAUCUGGAAUGU; sense UGUAAGGUCUAGAAUAUUGUU, anti-sense CAAUAUUCUAGACCUUACAUU (SEQ ID NO: 15, 16) (listed as RNA, chemistry not given here)","occludin expression, Western blot",occludin [1]; [3],significantly decreased
same,occludin staining pattern in brain microvasculature,occludin [2],discontinuous pattern of staining was also evident
"occludin siRNA (2): siRNA, target GAUAUUACUUGAUCGUGAU; sense UAGUGCUAGUUCAUUAUAGUU, anti-sense CUAUAAUGAACUAGCACUAUU (SEQ ID NO: 17, 18) (listed as RNA, chemistry not given here)","occludin expression, Western blot",occludin [1]; [3],significantly decreased
same,occludin staining pattern in brain microvasculature,occludin [2],discontinuous pattern of staining was also evident
"occludin siRNA (3): siRNA, target CAAAUUAUCGCACAUCAAG; sense GAACUACACGCUAUUAAACUU, anti-sense GUUUAAUAGCGUGUAGUUCUU (SEQ ID NO: 19, 20) (listed as RNA, chemistry not given here)","albumin extravasation, immunohistochemistry in brain vibratome sections",BBB,extravascular albumin
same,"albumin extravasation, immunohistochemistry in brain vibratome sections",BBB; listed as occludin siRNA 3,albumin deposition occurred
same,passage of mouse immunoglobulins (IgG) into the brain,BBB,no extravasation of immunoglobulins
same,occludin staining pattern in brain microvasculature,occludin [2],returned to levels similar to those observed in the non-targeting controls
"occludin siRNA (4): siRNA, target AGAUGGAUCGGUAUGAUAA; sense AAUAGUAUGGCUAGGUAGAUU, anti-sense UCUACCUAGCCAUACUAUUUU (SEQ ID NO: 21, 22) (listed as RNA, chemistry not given here)","albumin extravasation, immunohistochemistry in brain vibratome sections",BBB,extravascular albumin
same,"albumin extravasation, immunohistochemistry in brain vibratome sections",BBB; listed as occludin siRNA 4,albumin deposition occurred
same,passage of mouse immunoglobulins (IgG) into the brain,BBB,no extravasation of immunoglobulins
same,"occludin expression, Western blot",occludin [1]; 24 hours post injection,decrease
same,occludin staining pattern in brain microvasculature,occludin [2],returned to levels similar to those observed in the non-targeting controls
